Results on three compounds are retold here after PubChem BioAssay AID1259407 (Chemical Carcinogenesis Research Information System (CCRIS), 2018).

In this data set the test system is CCRIS mutagenicity, Ames/micronucleus/aberration tests. The data set is described as follows: CCRIS mutagenicity studies.

Active and inactive are the calls of the source. How the calls were made is not given here.

On to `O=c1oc2cc(O)ccc2c2oc3cc(O)ccc3c12`, for which the mutagenic call (End Point: IN VITRO CHROMOSOMAL ABERRATIONS, Test System: HUMAN PERIPHERAL LYMPHOCYTES, Metabolic Activation: NONE) was “active; positive (structural changes)”; the mutagenic call (Test System: AMES SALMONELLA TYPHIMURIUM, Strain/Indicator: TA98, Metabolic Activation: HAMSTER, LIVER, S-9, AROCLOR 1254, Method: STANDARD PLATE) is “inactive; negative”; the mutagenic call (Test System: AMES SALMONELLA TYPHIMURIUM, Strain/Indicator: TA98, Metabolic Activation: NONE, Method: STANDARD PLATE) was “inactive; negative”; the mutagenic call (Test System: AMES SALMONELLA TYPHIMURIUM, Strain/Indicator: TA98, Metabolic Activation: RAT, LIVER, S-9, AROCLOR 1254, Method: STANDARD PLATE) was “inactive; negative”; the mutagenic call (Test System: AMES SALMONELLA TYPHIMURIUM, Strain/Indicator: TA100, Metabolic Activation: HAMSTER, LIVER, S-9, AROCLOR 1254, Method: STANDARD PLATE) is “inactive; negative”; the mutagenic call (Test System: AMES SALMONELLA TYPHIMURIUM, Strain/Indicator: TA100, Metabolic Activation: NONE, Method: STANDARD PLATE) was “inactive; negative”. Further, the mutagenic call by setting is: (Test System: AMES SALMONELLA TYPHIMURIUM, Strain/Indicator: TA100, Metabolic Activation: RAT, LIVER, S-9, AROCLOR 1254, Method: STANDARD PLATE) “inactive; negative”; (Test System: AMES SALMONELLA TYPHIMURIUM, Strain/Indicator: TA1535, Metabolic Activation: HAMSTER, LIVER, S-9, AROCLOR 1254, Method: STANDARD PLATE) “inactive; negative”; (Test System: AMES SALMONELLA TYPHIMURIUM, Strain/Indicator: TA1535, Metabolic Activation: NONE, Method: STANDARD PLATE) “inactive; negative”; (Test System: AMES SALMONELLA TYPHIMURIUM, Strain/Indicator: TA1535, Metabolic Activation: RAT, LIVER, S-9, AROCLOR 1254, Method: STANDARD PLATE) “inactive; negative”; (Test System: AMES SALMONELLA TYPHIMURIUM, Strain/Indicator: TA1537, Metabolic Activation: HAMSTER, LIVER, S-9, AROCLOR 1254, Method: STANDARD PLATE) “inactive; negative”; (Test System: AMES SALMONELLA TYPHIMURIUM, Strain/Indicator: TA1537, Metabolic Activation: NONE, Method: STANDARD PLATE) “inactive; negative”. Also, the mutagenic call reads like this: (Test System: AMES SALMONELLA TYPHIMURIUM, Strain/Indicator: TA1537, Metabolic Activation: RAT, LIVER, S-9, AROCLOR 1254, Method: STANDARD PLATE) “inactive; negative”; (Test System: AMES SALMONELLA TYPHIMURIUM, Strain/Indicator: TA1538, Metabolic Activation: HAMSTER, LIVER, S-9, AROCLOR 1254, Method: STANDARD PLATE) “inactive; negative”; (Test System: AMES SALMONELLA TYPHIMURIUM, Strain/Indicator: TA1538, Metabolic Activation: NONE, Method: STANDARD PLATE) “inactive; negative”; (Test System: AMES SALMONELLA TYPHIMURIUM, Strain/Indicator: TA1538, Metabolic Activation: RAT, LIVER, S-9, AROCLOR 1254, Method: STANDARD PLATE) “inactive; negative”; (Test System: Ames Salmonella typhimurium, Strain/Indicator: TA102, Metabolic Activation: None, Method: Preincubation) “inactive; negative”; (Test System: Ames Salmonella typhimurium, Strain/Indicator: TA102, Metabolic Activation: Rat, Liver, S-9, Aroclor 1254 in 0.154 M KCl, Method: Preincubation) “inactive; negative”. For the same compound, the mutagenic call reads like this: (Test System: CHINESE HAMSTER LUNG CELLS, Strain/Indicator: V-79 (HPRT)/6-THIOGUANINE, Metabolic Activation: NONE) “active; positive”; (Test System: HUMAN LYMPHOBLASTOID CELLS, Strain/Indicator: AHH-1 CELLS(TK+/TK-), Metabolic Activation: NONE, Method: SUSPENSION/PLATE) “active; positive”; (Test System: SYRIAN HAMSTER EMBRYO CELLS, Strain/Indicator: HPRT/6-THIOGUANINE, Metabolic Activation: NONE, Method: PLATE) “active; positive”.
With `O=C1NC(=O)c2ccccc21`, the mutagenic call (Test System: Ames Salmonella typhimurium, Strain/Indicator: TA98, Metabolic Activation: None, Method: Preincubation) is “inactive; negative”; the mutagenic call (Test System: Ames Salmonella typhimurium, Strain/Indicator: TA98, Metabolic Activation: Rat, Liver, S-9, Phenobarbital and 5,6-benzoflavone, Method: Preincubation) was “inactive; negative”; the mutagenic call (Test System: Ames Salmonella typhimurium, Strain/Indicator: TA100, Metabolic Activation: None, Method: Preincubation) is “inactive; negative”; the mutagenic call (Test System: Ames Salmonella typhimurium, Strain/Indicator: TA100, Metabolic Activation: Rat, Liver, S-9, Phenobarbital and 5,6-benzoflavone, Method: Preincubation) is “inactive; negative”; the mutagenic call (Test System: Ames Salmonella typhimurium, Strain/Indicator: TA1535, Metabolic Activation: None, Method: Preincubation) is “inactive; negative”; the mutagenic call (Test System: Ames Salmonella typhimurium, Strain/Indicator: TA1535, Metabolic Activation: Rat, Liver, S-9, Phenobarbital and 5,6-benzoflavone, Method: Preincubation) is “inactive; negative”. Further, the mutagenic call reads like this: (Test System: Ames Salmonella typhimurium, Strain/Indicator: TA1537, Metabolic Activation: None, Method: Preincubation) “inactive; negative”; (Test System: Ames Salmonella typhimurium, Strain/Indicator: TA1537, Metabolic Activation: Rat, Liver, S-9, Phenobarbital and 5,6-benzoflavone, Method: Preincubation) “inactive; negative”; (Test System: E. coli, Strain/Indicator: WP2uvrA/pKM101, Metabolic Activation: None, Method: Preincubation) “inactive; negative”; (Test System: E. coli, Strain/Indicator: WP2uvrA/pKM101, Metabolic Activation: Rat, Liver, S-9, Phenobarbital and 5,6-benzoflavone, Method: Preincubation) “inactive; negative”.
With `Nc1ccc(NCCO)c([N+](=O)[O-])c1`, the mutagenic call reads like this: (Test System: AMES SALMONELLA TYPHIMURIUM, Strain/Indicator: TA97, Metabolic Activation: HAMSTER, LIVER, S-9, AROCLOR 1254 (10%), Method: PREINCUBATION) “active; positive”; (Test System: AMES SALMONELLA TYPHIMURIUM, Strain/Indicator: TA97, Metabolic Activation: HAMSTER, LIVER, S-9, AROCLOR 1254, Method: PREINCUBATION) “active; positive”; (Test System: AMES SALMONELLA TYPHIMURIUM, Strain/Indicator: TA97, Metabolic Activation: NONE, Method: PREINCUBATION) “active; positive”; (Test System: AMES SALMONELLA TYPHIMURIUM, Strain/Indicator: TA97, Metabolic Activation: RAT, LIVER, S-9, AROCLOR 1254 (10%), Method: PREINCUBATION) “active; positive”; (Test System: AMES SALMONELLA TYPHIMURIUM, Strain/Indicator: TA97, Metabolic Activation: RAT, LIVER, S-9, AROCLOR 1254, Method: PREINCUBATION) “active; positive”; (Test System: AMES SALMONELLA TYPHIMURIUM, Strain/Indicator: TA98, Metabolic Activation: HAMSTER, LIVER, S-9, AROCLOR 1254 (10%), Method: PREINCUBATION) “active; positive”. For the same compound, the mutagenic call reads like this: (Test System: AMES SALMONELLA TYPHIMURIUM, Strain/Indicator: TA98, Metabolic Activation: HAMSTER, LIVER, S-9, AROCLOR 1254, Method: PREINCUBATION) “active; positive”; (Test System: AMES SALMONELLA TYPHIMURIUM, Strain/Indicator: TA98, Metabolic Activation: NONE, Method: PREINCUBATION) “active; positive”; (Test System: AMES SALMONELLA TYPHIMURIUM, Strain/Indicator: TA98, Metabolic Activation: RAT, LIVER, S-9, AROCLOR 1254 (10%), Method: PREINCUBATION) “active; positive”; (Test System: AMES SALMONELLA TYPHIMURIUM, Strain/Indicator: TA98, Metabolic Activation: RAT, LIVER, S-9, AROCLOR 1254, Method: PREINCUBATION) “active; positive”; (Test System: AMES SALMONELLA TYPHIMURIUM, Strain/Indicator: TA100, Metabolic Activation: HAMSTER, LIVER, S-9, AROCLOR 1254 (10%), Method: PREINCUBATION) “active; positive”; (Test System: AMES SALMONELLA TYPHIMURIUM, Strain/Indicator: TA100, Metabolic Activation: HAMSTER, LIVER, S-9, AROCLOR 1254, Method: PREINCUBATION) “active; positive”. The mutagenic call (Test System: AMES SALMONELLA TYPHIMURIUM, Strain/Indicator: TA100, Metabolic Activation: NONE, Method: PREINCUBATION) is “active; positive”; the mutagenic call (Test System: AMES SALMONELLA TYPHIMURIUM, Strain/Indicator: TA100, Metabolic Activation: RAT, LIVER, S-9, AROCLOR 1254 (10%), Method: PREINCUBATION) is “active; positive”; the mutagenic call (Test System: AMES SALMONELLA TYPHIMURIUM, Strain/Indicator: TA100, Metabolic Activation: RAT, LIVER, S-9, AROCLOR 1254, Method: PREINCUBATION) is “active; positive”; the mutagenic call (Test System: AMES SALMONELLA TYPHIMURIUM, Strain/Indicator: TA1535, Metabolic Activation: HAMSTER, LIVER, S-9, AROCLOR 1254 (10%), Method: PREINCUBATION) was “inactive; negative”; the mutagenic call (Test System: AMES SALMONELLA TYPHIMURIUM, Strain/Indicator: TA1535, Metabolic Activation: HAMSTER, LIVER, S-9, AROCLOR 1254, Method: PREINCUBATION) was “inactive; negative”; the mutagenic call (Test System: AMES SALMONELLA TYPHIMURIUM, Strain/Indicator: TA1535, Metabolic Activation: NONE, Method: PREINCUBATION) is “inactive; negative”. The mutagenic call reads like this: (Test System: AMES SALMONELLA TYPHIMURIUM, Strain/Indicator: TA1535, Metabolic Activation: RAT, LIVER, S-9, AROCLOR 1254 (10%), Method: PREINCUBATION) “inactive; negative”; (Test System: AMES SALMONELLA TYPHIMURIUM, Strain/Indicator: TA1535, Metabolic Activation: RAT, LIVER, S-9, AROCLOR 1254, Method: PREINCUBATION) “inactive; negative”.
